Assay results reported in publication PMC12369477 (Journal of Experimental Botany, 2025).

Experiments:
AtGH3.6 [1] = target: T1, AtGH3.6 (Arabidopsis thaliana, UniProt Q9LSQ4); experiment: crystal structure with AMP and Asp; MST; format: binding
T1 construct: gene GH3.6
T1 sequence (Q9LSQ4 1-612): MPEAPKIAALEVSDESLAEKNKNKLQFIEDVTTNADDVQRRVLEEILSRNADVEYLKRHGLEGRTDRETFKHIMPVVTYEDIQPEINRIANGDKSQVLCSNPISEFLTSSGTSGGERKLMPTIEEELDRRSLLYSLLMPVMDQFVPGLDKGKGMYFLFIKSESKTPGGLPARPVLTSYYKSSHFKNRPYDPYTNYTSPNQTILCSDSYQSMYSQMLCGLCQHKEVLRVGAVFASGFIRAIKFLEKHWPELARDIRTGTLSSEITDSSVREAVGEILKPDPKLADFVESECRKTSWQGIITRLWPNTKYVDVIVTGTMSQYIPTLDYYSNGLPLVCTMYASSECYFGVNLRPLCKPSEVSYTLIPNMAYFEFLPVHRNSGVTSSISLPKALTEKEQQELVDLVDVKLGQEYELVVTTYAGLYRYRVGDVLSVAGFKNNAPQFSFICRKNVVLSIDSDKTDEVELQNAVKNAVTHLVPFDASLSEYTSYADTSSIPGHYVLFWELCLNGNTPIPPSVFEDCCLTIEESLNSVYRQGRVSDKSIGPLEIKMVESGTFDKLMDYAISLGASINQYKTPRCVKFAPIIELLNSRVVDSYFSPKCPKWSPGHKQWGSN

AtGH3.6 [2] = target: T1, AtGH3.6; experiment: MST; format: binding
UGT74D1 = target: T2, UGT74D1 (Arabidopsis thaliana, UniProt Q9SKC5); experiment: bacterial lysate glucosylation assay, HPLC-MS/MS; format: cell-based
T2 construct: recombinant AtUGT74D1 in E. coli lysate
T2 sequence (Q9SKC5 1-456): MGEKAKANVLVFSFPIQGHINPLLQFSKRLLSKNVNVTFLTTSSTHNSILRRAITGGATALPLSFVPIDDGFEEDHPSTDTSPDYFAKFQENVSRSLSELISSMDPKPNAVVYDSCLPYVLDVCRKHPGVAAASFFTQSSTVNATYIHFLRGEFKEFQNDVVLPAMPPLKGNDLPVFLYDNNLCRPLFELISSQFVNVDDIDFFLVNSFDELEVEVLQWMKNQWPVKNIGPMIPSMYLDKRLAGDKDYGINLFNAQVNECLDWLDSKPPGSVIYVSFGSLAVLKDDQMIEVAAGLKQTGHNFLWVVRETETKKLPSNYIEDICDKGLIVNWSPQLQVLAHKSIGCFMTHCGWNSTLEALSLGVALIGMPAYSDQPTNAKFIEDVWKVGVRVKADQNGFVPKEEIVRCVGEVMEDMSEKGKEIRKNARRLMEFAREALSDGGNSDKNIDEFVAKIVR

UGT84B1 = target: T3, UGT84B1 (Arabidopsis thaliana, UniProt O22182); experiment: bacterial lysate glucosylation assay, HPLC-MS/MS; format: cell-based
T3 construct: recombinant AtUGT84B1 in E. coli lysate
T3 sequence (O22182 1-456): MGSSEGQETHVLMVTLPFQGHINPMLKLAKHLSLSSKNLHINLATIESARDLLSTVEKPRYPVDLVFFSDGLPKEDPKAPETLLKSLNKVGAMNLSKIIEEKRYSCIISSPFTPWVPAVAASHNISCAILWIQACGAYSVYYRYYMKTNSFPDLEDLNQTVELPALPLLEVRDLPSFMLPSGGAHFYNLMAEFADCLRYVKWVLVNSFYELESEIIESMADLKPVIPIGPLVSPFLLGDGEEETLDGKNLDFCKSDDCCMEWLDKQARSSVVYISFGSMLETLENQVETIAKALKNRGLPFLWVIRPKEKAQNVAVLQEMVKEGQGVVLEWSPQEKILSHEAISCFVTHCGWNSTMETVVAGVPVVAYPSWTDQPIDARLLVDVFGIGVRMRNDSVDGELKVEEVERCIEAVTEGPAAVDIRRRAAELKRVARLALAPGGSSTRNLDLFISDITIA

AtGH3.6 [3] = target: T1, AtGH3.6; experiment: MST; also conjugated by AtGH3.[…] in bacterial lysate assay; format: binding

`N[C@@H](CC(=O)O)C(=O)O` [Asp, aspartate] showed a Kd (AtGH3.6 [1]) of 680 µM.
`N[C@@H](CCC(=O)O)C(=O)O` [Glu] gave a Kd (AtGH3.6 [2]) of 720 µM.
In the case of `O=C(O)Cc1c[nH]c2ccccc12` [IAA, indole-3-acetic acid], the “bacterial lysate glucosylation assay, HPLC-MS/MS” value (UGT74D1) is reported as “Both UGT84B1 and UGT74D1 recombinant proteins showed the capability to produce IAA-glc and PAA-glc”, the Kd (AtGH3.6 [2]; read-out: Kd) is reported as ~60 µM and the “bacterial lysate glucosylation assay, HPLC-MS/MS” value (UGT84B1) is reported as “Both UGT84B1 and UGT74D1 recombinant proteins showed the capability to produce IAA-glc and PAA-glc”.
In the case of `O=C(O)Cc1ccccc1` [PAA, phenylacetic acid], the Kd (AtGH3.6 [3]) is reported as ~60 µM.
